Entries after “also recorded” stand apart in the source; their conditions may differ. Marks after values point to notes of the source that are not given here.
What was measured:
endometrium = assay: effects on the endometrium (summary statement)
[1] = cholesterol and triglycerides in blood serum (summary statement)
[2] = tested on: Normal human dermal fibroblasts (HDF); assay: growth of normal human skin fibroblasts (negative control); assay type: cell-based; conditions: concentration of 20 μg/ml
Protocol: The study analysis was carried out on an passaged MCF-7 human cells culture culture (breast adenocarcinoma). Normal human dermal fibroblasts (HDF) of early passages were used as a negative control. The cells were cultivated in Carrel vials in DMEM/F12 medium (Biolot) with 1.0% of antibiotic-free fetal bovine embryonic serum (Biolot) added in the 5% CO2 atmosphere, at 37° C.
The cells were seeded on Carrel vials at 50×10^4 cells per flask. To study the proliferative activity of the cells under conditions of sulfatase inhibition, 24 hours after seeding the culture medium was […], and then these tumor cell lines were incubated for various periods of time (24 to 72 hrs). The inhibitor was dissolved in DMSO. […] To exclude the cytotoxic effect of DMSO, a control sample comprising DMSO without sulfatase inhibitor was prepared. To exclude nonspecific detrimental effects of the compounds, normal human skin fibroblasts were used. Then the cells were detached with the versene-trypsin solution (Biolot), plated onto Carrel vials containing a fresh complete culture medium. The cells were counted when untreated control cells reached the maximum cell density per unit of surface area of a culture flask (monolayer), and their number was set as 100%. The proliferative activity of all of the studied cell cultures exposed to sulfatase inhibitors was determined in triplicate.

[3] = tested on: uterine body without horns; assay: uterine body weight (hormonal effect) on Day 28; assay type: in vivo, FVB mice transgenic for HER-2/neu; conditions: for Uterine body weight: Day 28; for uterotropic activity / hormonal effect: mouse, in vivo
Protocol: To estimate the hormonal effect of the medicament, the weight of uterine body without horns was measured on Day 28 of the observation period (Table 9).

[4] = tested on: Breast tumors (BT) in female FBV/N mice transgenic for HER-2/neu; assay: antitumor activity in mice with HER-2/neu breast tumors; assay type: in vivo, FVB mice transgenic for HER-2/neu; conditions: for average total volume of tumors, % changes from baseline / average volume of tumors, % changes from baseline: 28 days; for Total number of new tumors: end of experiment; for frequency of tumor stabilizations: end of observation; for antitumor efficacy compared with Tamoxifen: mouse, in vivo
From the text: The age of animals at the beginning of the study was 21-41 weeks and weight was 25-30 g.
The control groups were given the olive oil (placebo).
TGI=(Vctrl−Vexp)/Vctrl×100(%),

[5] = tested on: chronic myelogenous leukemia cells (K562); assay: activity against K562; assay type: cell-based
[6] = tested on: triple negative breast cancer MDA-MB-231 cell line; assay: cell proliferation in MDA-MB-231; assay type: cell-based
[7] = tested on: gastric adenocarcinoma SNU638; assay: activity against SNU638; assay type: cell-based; conditions: Homo sapiens, SNU-638
lung cancer A549 = assay: activity against A549; assay type: cell-based; conditions: Homo sapiens
[8] = tested on: hepatocellular carcinoma SK-Hep-1 cells; assay: activity against SK-Hep-1 cells; assay type: cell-based; conditions: Homo sapiens, SK-HEP1
estrogen receptors = assay: study of binding to the estrogen receptors; conditions: concentrations of −0.001 and 0.01, 0.1 and 1.0 μmol/ml

CC1(C)CC(=O)[C@@]2(C)CCc3c(ccc4cc(OS(N)(=O)=O)ccc34)[C@@H]2C1 [medicament, 3-O-sulfamate-16,16-dimethyl-D-homoequilenin]
negative effects on the endometrium (endometrium): absence of negative effects
effects on the content of triglycerides in blood serum [1]: absence of effects
hypocholesterolemic activity [1]: hypocholesterolemic activity
growth of human skin fibroblasts [2]: does not influence the growth
Uterine body weight ([3]; medicament 20 mg/kg, All mice): 27 ± 5 mg
Uterine body weight ([3]; medicament 20 mg/kg, diestrus (D-7)): 19 ± 3 mg
Uterine body weight ([3]; medicament 20 mg/kg, estrus (E-3)): 45 ± 7 mg
Uterine body weight ([3]; medicament 100 mg/kg, All mice): 26 ± 6 mg
Uterine body weight ([3]; medicament 100 mg/kg, diestrus (D-8)): 19 ± 4 mg
Uterine body weight ([3]; medicament 100 mg/kg, estrus (E-2)): 50 ± 10 mg
uterotropic activity / hormonal effect [3]: No significant differences; also recorded: no uterotropic activity
uterotropic activity / hormonal effect ([3]; listed as compound): absence of uterotropic activity
Average volume of new tumors at the end of observation period (M) ([4]; medicament 20 mg/kg): 0.15 cm^3
average total volume of tumors, % changes from baseline ([4]; medicament 20 mg/kg): 106%
average volume of tumors, % changes from baseline ([4]; medicament 20 mg/kg): 103%
TGI (average total tumor volume) ([4]; medicament 20 mg/kg, Day 0): 25%
TGI (average tumor volume) ([4]; medicament 20 mg/kg, Day 0): 8%
average total volume of tumors in mice (M) ([4]; medicament 20 mg/kg, Day 0): 1.69 cm^3
average volume of tumors (M) ([4]; medicament 20 mg/kg, Day 0): 0.35 cm^3
relative change of the average total volume to that of Day − 1 (M) ([4]; medicament 20 mg/kg, Day 0): 0%
TGI (average total tumor volume) ([4]; medicament 20 mg/kg, Day 7): 36%
TGI (average tumor volume) ([4]; medicament 20 mg/kg, Day 7): 22%
average total volume of tumors in mice (M) ([4]; medicament 20 mg/kg, Day 7): 1.93 cm^3
average volume of tumors (M) ([4]; medicament 20 mg/kg, Day 7): 0.39 cm^3
relative change of the average total volume to that of Day − 1 (M) ([4]; medicament 20 mg/kg, Day 7): 19%
TGI (average total tumor volume) ([4]; medicament 20 mg/kg, Day 14): 36%
TGI (average tumor volume) ([4]; medicament 20 mg/kg, Day 14): 21%
average total volume of tumors in mice (M) ([4]; medicament 20 mg/kg, Day 14): 2.67* cm^3
average volume of tumors (M) ([4]; medicament 20 mg/kg, Day 14): 0.55 cm^3
relative change of the average total volume to that of Day − 1 (M) ([4]; medicament 20 mg/kg, Day 14): 64^a %
TGI (average total tumor volume) ([4]; medicament 20 mg/kg, Day 21): 38%
TGI (average tumor volume) ([4]; medicament 20 mg/kg, Day 21): 25%
average total volume of tumors in mice (M) ([4]; medicament 20 mg/kg, Day 21): 3.15** cm^3
average volume of tumors (M) ([4]; medicament 20 mg/kg, Day 21): 0.64 cm^3
relative change of the average total volume to that of Day − 1 (M) ([4]; medicament 20 mg/kg, Day 21): 91^aa %
TGI (average total tumor volume) ([4]; medicament 20 mg/kg, Day 28): 40%
TGI (average tumor volume) ([4]; medicament 20 mg/kg, Day 28): 27%
average total volume of tumors in mice (M) ([4]; medicament 20 mg/kg, Day 28): 3.48**^a cm^3
average volume of tumors (M) ([4]; medicament 20 mg/kg, Day 28): 0.71* cm^3
relative change of the average total volume to that of Day − 1 (M) ([4]; medicament 20 mg/kg, Day 28): 107*^aa %
Total number of new tumors ([4]; medicament 20 mg/kg): 23
frequency of tumor stabilizations ([4]; medicament 20 mg/kg): 22%
Average volume of new tumors at the end of observation period (M) ([4]; medicament 100 mg/kg): 0.12* cm^3
average total volume of tumors, % changes from baseline ([4]; medicament 100 mg/kg): 59%
average volume of tumors, % changes from baseline ([4]; medicament 100 mg/kg): 60%
TGI (average total tumor volume) ([4]; medicament 100 mg/kg, Day 0): 25%
TGI (average tumor volume) ([4]; medicament 100 mg/kg, Day 0): 8%
average total volume of tumors in mice (M) ([4]; medicament 100 mg/kg, Day 0): 1.70 cm^3
average volume of tumors (M) ([4]; medicament 100 mg/kg, Day 0): 0.35 cm^3
relative change of the average total volume to that of Day − 1 (M) ([4]; medicament 100 mg/kg, Day 0): 0%
TGI (average total tumor volume) ([4]; medicament 100 mg/kg, Day 7): 41%
TGI (average tumor volume) ([4]; medicament 100 mg/kg, Day 7): 26%
average total volume of tumors in mice (M) ([4]; medicament 100 mg/kg, Day 7): 1.79 cm^3
average volume of tumors (M) ([4]; medicament 100 mg/kg, Day 7): 0.37 cm^3
relative change of the average total volume to that of Day − 1 (M) ([4]; medicament 100 mg/kg, Day 7): 1^a %
TGI (average total tumor volume) ([4]; medicament 100 mg/kg, Day 14): 45%
TGI (average tumor volume) ([4]; medicament 100 mg/kg, Day 14): 31%
average total volume of tumors in mice (M) ([4]; medicament 100 mg/kg, Day 14): 2.30* cm^3
average volume of tumors (M) ([4]; medicament 100 mg/kg, Day 14): 0.48 cm^3
relative change of the average total volume to that of Day − 1 (M) ([4]; medicament 100 mg/kg, Day 14): 38^a %
TGI (average total tumor volume) ([4]; medicament 100 mg/kg, Day 21): 46%
TGI (average tumor volume) ([4]; medicament 100 mg/kg, Day 21): 33%
average total volume of tumors in mice (M) ([4]; medicament 100 mg/kg, Day 21): 2.75** cm^3
average volume of tumors (M) ([4]; medicament 100 mg/kg, Day 21): 0.57* cm^3
relative change of the average total volume to that of Day − 1 (M) ([4]; medicament 100 mg/kg, Day 21): 75^aa %
TGI (average total tumor volume) ([4]; medicament 100 mg/kg, Day 28): 53%
TGI (average tumor volume) ([4]; medicament 100 mg/kg, Day 28): 42%
average total volume of tumors in mice (M) ([4]; medicament 100 mg/kg, Day 28): 2.71**^a cm^3
average volume of tumors (M) ([4]; medicament 100 mg/kg, Day 28): 0.56**^a cm^3
relative change of the average total volume to that of Day − 1 (M) ([4]; medicament 100 mg/kg, Day 28): 69**^aa %
Total number of new tumors ([4]; medicament 100 mg/kg): 15
frequency of tumor stabilizations ([4]; medicament 100 mg/kg): 27%
frequency of tumor stabilizations ([4]; medicament 100 mg/kg, listed as compound): 27%
antitumor efficacy compared with Tamoxifen [4]: statistically significantly more effective
antitumor efficacy compared with Tamoxifen ([4]; listed as agent): inhibits the proliferation of tumours more effectively
activity against K562 cells [5]: active
inhibition of cell proliferation [6]: 83%
IC50 [7]: 22.8 µM
IC50 (lung cancer A549): 29.6 µM
IC50 [8]: 53.4 µM
hormone activity (estrogen receptors): lacks hormone activity
